# Experiments:
# c-MYC = test: Immunoblot of c-MYC protein levels in PDAC cell lines treated with DMPatA and DMDAPatA (FIG. 6B); format: cell-based; details: Capan-1, PANC-1, AsPC-1, MIA PaCa-2; 24 and 48 hours; DMPatA 10 and 20 nM, DMDAPatA 40 nM
# Experimental: FIG. 6B compares immunoblots of c-MYC protein levels from whole cell extracts of various PDAC cell lines (Capan-1, PANC-t, AsPC-1, MIA PaCa-2) treated with DMPatA (10 nM and 20 nM) and DMDPatA ([…]) (40 nM). Treatment was for 24 and 48 hours.
# Western blotting was carried out as previously described (Luchenko V L, Litman T, Chakraborty A R, et al. 65. Membranes were probed with primary antibodies: Phospho-Histone H2A.X (Ser139) (1:1000, Millipore Sigma #05-636), GAPDH (1:10000, Abcam #ab8245), c-Myc (1:1000, Abcam #ab32072), β-Actin (1:1000, Cell Signaling Technology (CST), #8457), Phospho-RPA32/RPA2 (Ser33) (1:1000, Cell Signaling Technology #10148), Phospho-Chk1 (Ser345) (1:1000, CST #2341), and secondary antibodies IRDye® 680RD Goat anti-Mouse and IRDye® 800CW Goat anti-Rabbit (both from LI-COR Biosciences). Signal quantification was performed using the Odyssey CLx imaging system (LI-COR Biosciences), capturing various exposures within the linear range with ImageStudio software V3.1 (LI-COR Biosciences).
# MIA PaCa-2 and KLM cells [1] = test: RNA-seq gene expression analysis (FIG. 9A); format: cell-based; details: total 18 h (6 h romidepsin 15 nM + 12 h with/without DMPatA 2 nM); |log2FC|≥1, adjusted p<0.05
# Experimental: Plots show a significant increase in the overall gene expression in the cells treated with the combination. Cells treated for a total of 18 h (i.e., 6-hour romidepsin followed by 12-hour incubation with 2 nM DMPatA (combo) or without (Romi alone)).
# To gain further insight into the effects of the combination treatment gene expression was profiled in MIA PaCa-2 and KLM cells treated with vehicle, the single agents, or the combination for a total of 18 h (i.e., 6-hour romidepsin treatment followed by 12-hour washout with 2 nM DMPatA or without), probing whether alterations observed following combination treatment could be explained by changes in gene expression.
# Total RNA was extracted using RNeasy mini kit (Qiagen) from cells collected after 18 hours (6 hours romidepsin (15 nM)+12 hours washout with or without DMPatA (2 nM)) incubation with or without drugs. RNA quantitation and quality were assessed by the Agilent Bioanalyzer 2100 at the Molecular Pathology Shared Resource of the Herbert Irving Comprehensive Cancer Center at Columbia University (mBank). RNA library preparation and sequencing was performed at Columbia University's Sulzberger Genome Center. Briefly, poly-A pull-down was used to enrich mRNAs from total RNA samples, followed by library construction using Illumina TruSeq chemistry. Libraries were then sequenced using Illumina NovaSeq 6000. For the DESeq2 (v 1.40.2) analysis the data were imported with tximport in DESeq2 and a dds object was generated. Variance stabilizing transformation was used on the object and the output was used for the heatmap and PCA plots. Abundance of transcripts was estimated by pseudoalignment using kallisto, and downstream analysis was performed using R (v4.3.1) and the indicated packages. […] Differentially expressed genes were determined using linear regression method (limma v3.56.2), and genes with |log 2FC|≥1 and adjusted p-value <0.05 were plotted accordingly on volcano plots and heatmap (ggplot2 v3.5.0 and ComplexHeatmap v2.16.0). […]
# [2] = Body weight of xenograft mice (FIG. 2B); format: in vivo, athymic nude mice; details: IP; romidepsin 0.75 mg/kg, DMPatA 0.075 mg/kg
# Source text: FIGS. 2A and 2B illustrate the results of a MIA PaCa-2 xenograft model of PDAC in male athymic nude mice. FIG. 2A compares tumor growth (mm^3) in mice treated with the indicated concentrations of combination, romidepsin and DMPatA using IP route and vehicles described in the materials and methods section below. FIG. 2B compares body weight (g) of mice treated with the combination and single agents following treatment. FIGS. 2C and 2D compare quantification of H3K9ac and c-MYC antibodies. Frozen sections from MIA PaCa-2 xenograft tumor tissues were subjected to immunohistochemical analysis using antibodies against H3K9ac, and c-MYC. Fluorescence images were captured using fluorescent microscopy and the fluorescent signal from H3K9ac and c-MYC antibodies were quantified. To quantify fluorescence intensity at least 500 cells per condition were measured for each antibody at 40× magnification. The median of the signal intensity is shown. Statistical significance was determined by one-way ANOVA using Tukey multiple comparisons test, ****p value<0.0001.
# Animal studies were performed according to Institutional Animal Care and Use Committee (IACUC) protocol number AC-AABD2601. Following the establishment of initial dose levels for individual drugs, efficacy of the combination and single agents in a MIA PaCa-2 xenograft model was assessed at a tolerable dose and schedule. […]
# [3] = test system: PDAC cell lines (Capan-1, PANC-1, AsPC-1, MIA PaCa-2); test: Cytotoxicity/cell viability (CellTiter-Glo) of DMPatA on PDAC cell lines, 48 h (FIG. 6A); format: cell-based; details: four PDAC cell lines (Capan-1, PANC-1, AsPC-1, MIA PaCa-2)
# Experimental: FIG. 6A compares cytotoxicity graphs of the effect (viability) of DMPatA on various PDAC cell lines (Capan-1, PANC-1, AsPC-1, MIA PaCa-2) following 48 hours of treatment.
# (§1) Previous studies have reported that inhibitors of translation initiation prevent cell proliferation and reduce levels of critical oncoproteins such as MYC and cyclinD1. The effects of DMPatA, a novel inhibitor of eIF4A helicase, was evaluated on four PDAC cell lines. All cells were sensitive to treatment with IC50s ranging from 2.8 to 10 nM (FIG. 6A). […] The efficacy of another eIF4Ai, zotatifin (eFT226), was evaluated on MIA PaCa-2 and KLM cells.
# (§2) Cell viability was determined using CellTiter-Glo® reagent (Promega, #G7570) following the manufacturer's instructions. Cells were seeded at […] in white 96-well plates and grown overnight. They were then treated and incubated at 37 °C with 5% CO2. After incubation, assay reagent was added, and luminescent signals were quantified using a microplate reader (PHERAstar® FS, BMG LABTECH, Ortenberg, Germany). Caspase-Glo 3/7 assay (Promega, #G8091) was also employed following the manufacturer's instructions to measure apoptosis.
# MIA PaCa-2 and KLM cells [4] = test: Cell proliferation with zotatifin on MIA PaCa-2 and KLM cells; format: cell-based
# Experimental: as §1, §2
structure (smiles),measurement,setting,value
"CC(/C=C/C(C)=C/[C@@H]1Cc2nc(cs2)CCCCC(=O)O[C@@H](C)C/C(C)=C/C=C\C(=O)O1)=C\CN(C)C [DMDAPatA, des-methyl des-amino pateamine A]",c-MYC protein levels,c-MYC,reduced c-MYC levels in all cell lines
"CC(/C=C/C(C)=C/[C@@H]1Cc2nc(cs2)CC[C@@H](N)CC(=O)O[C@@H](C)C/C(C)=C/C=C\C(=O)O1)=C\CN(C)C [DMPatA, des-methyl pateamine A]",number of differentially expressed genes (DEGs),MIA PaCa-2 and KLM cells [1],1443 DEGs
same,body weight vs vehicle,[2],neither the single agent nor the combination treatments had a significant impact on weight
same,IC50,[3],2.8 to 10 nM
COc1cc2c(c(OC)n1)[C@]1(O)[C@H](O)[C@H](CN(C)C)[C@@H](c3ccccc3)[C@]1(c1ccc(C#N)cc1)O2 [zotatifin],"potency in suppressing proliferation, DMPatA vs zotatifin",MIA PaCa-2 and KLM cells [4],"reduced potency, compared to DMPatA"

# Reference: patent US20260335398A1, “METHODS FOR TREATING PANCREATIC CANCER WITH A COMBINATION OF DES-METHYL PATEAMINE A AND A CLASS I HDAC INHIBITOR” (Baylor University, priority 2023, published 2026)
